Data: patent US7902204B2 (priority 2003, dated 2011)

tested on: HIV-1 single-round infectious reporter virus; test: Single-round infectious HIV-1 luciferase reporter virus infection of HeLa CD4 CCR5 cells; format: cell-based; conditions: Human immunodeficiency virus 1, HeLa-CD4/CCR5, 72 h, read-out: EC50 Group from Table 1
Procedure: • Virus production—Human embryonic Kidney cell line, 293, propagated in Dulbecco's Modified Eagle Medium (Life Technologies, Gaithersburg, Md.) containing 10% fetal Bovine serum (FBS, Sigma, St. Louis, Mo.). • Virus infection—Human epithelial cell line, HeLa, expressing the HIV-1 receptors CD4 and CCR5 was propagated in Dulbecco's Modified Eagle Medium (Life Technologies, Gaithersburg, Md.) containing 10% fetal Bovine serum (FBS, Sigma, St. Louis, Mo.) and supplemented with 0.2 mg/mL Geneticin (Life Technologies, Gaithersburg, Md.) and 0.4 mg/mL Zeocin (Invitrogen, Carlsbad, Calif.). Virus-Single-round infectious reporter virus was produced by co-transfecting human embryonic Kidney 293 cells with an HIV-1 envelope DNA expression vector and a proviral cDNA containing an envelope deletion mutation and the luciferase reporter gene inserted in place of HIV-1 nef sequences (Chen et al, Ref 41). Transfections were performed using lipofectAMINE PLUS reagent as described by the manufacturer (Life Technologies, Gaithersburg, Md.). Experiment • 1. Compound was added to HeLa CD4 CCR5 cells plated in 96 well plates at a cell density of 1×10^4 cells per well in 100 μl Dulbecco's Modified Eagle Medium containing 10% fetal Bovine serum at a concentration of <20 μM. • 2. 100 μl of single-round infectious reporter virus in Dulbecco's Modified Eagle Medium was then added to the plated cells and compound at an approximate multiplicity of infection (MOI) of 0.01, resulting in a final volume of 200 μl per well and a final compound concentration of <10 μM. • 3. Samples were harvested 72 h after infection. • 4. Viral infection was monitored by measuring luciferase expression from viral DNA in the infected cells using a luciferase reporter gene assay kit (Roche Molecular Biochemicals, Indianapolis, Ind.). Infected cell supernatants were removed and 50 μl of Dulbecco's Modified Eagle Medium (without phenol red) and 50 μl of luciferase assay reagent reconstituted as described by the manufacturer (Roche Molecular Biochemicals, Indianapolis, Ind.) was added per well. Luciferase activity was then quantified by measuring luminescence using a Wallac microbeta scintillation counter. • 5. The percent inhibition for each compound was calculated by quantifying the level of luciferase expression in cells infected in the presence of each compound as a percentage of that observed for cells infected in the absence of compound and subtracting such a determined value from 100. • 6. An EC50 provides a method for comparing the antiviral potency of the compounds of this invention. The effective concentration for fifty percent inhibition (EC50) was calculated with the Microsoft Excel Xlfit curve fitting software. For each compound, curves were generated from percent inhibition calculated at 10 different concentrations by using a four paramenter logistic model (model 205). Table 1 is the key for the data in Tables 2-4.

SMILES	EC50 [nM]
O=C(C(=O)N1CCN(c2nccc3ccccc23)CC1)c1c[nH]c2c(Cl)ncnc12 [Example 30, 1-(4-Chloro-5H-pyrrolo[3,2-d]pyrimidin-7-yl)-2-(4-(isoquinolin-1-yl)piperazin-1-yl)ethane-1,2-dione]	< 1000
O=C(C(=O)N1CCN(c2nccc3ccccc23)CC1)c1c[nH]c2c(-c3cnccn3)ncnc12 [Example 31, 1-(4-(Isoquinolin-1-yl)piperazin-1-yl)-2-(4-(pyrazin-2-yl)-5H-pyrrolo[3,2-d]pyrimidin-7-yl)ethane-1,2-dione]	< 1000
O=C(C(=O)N1CCN(c2nccc3ccccc23)CC1)c1c[nH]c2c(-n3cccn3)ncnc12 [Example 32, 1-(4-(1H-Pyrazol-1-yl)-5H-pyrrolo[3,2-d]pyrimidin-7-yl)-2-(4-(isoquinolin-1-yl)piperazin-1-yl)ethane-1,2-dione]	< 1000
N#CC(=C1CCN(C(=O)C(=O)c2c[nH]c3c(Cl)ncnc23)CC1)c1ccccc1 [Example 33, 2-(1-(2-(4-Chloro-5H-pyrrolo[3,2-d]pyrimidin-7-yl)-2-oxoacetyl)piperidin-4-ylidene)-2-phenylacetonitrile]	< 1000
N#CC(=C1CCN(C(=O)C(=O)c2c[nH]c3c(-c4cncnc4)ncnc23)CC1)c1ccccc1 [Example 34, 2-(1-(2-Oxo-2-(4-(pyrimidin-5-yl)-5H-pyrrolo[3,2-d]pyrimidin-7-yl)acetyl)piperidin-4-ylidene)-2-phenylacetonitrile]	< 1000
O=C(C(=O)N1CCC(=C(c2ccccc2)c2nnco2)CC1)c1c[nH]c2c(Cl)ncnc12 [Example 35]	< 1000
O=C(C(=O)N1CCC(=C(c2ccccc2)c2nnco2)CC1)c1c[nH]c2c(-n3cncn3)ncnc12 [Example 36, 1-(4-((1,3,4-Oxadiazol-2-yl)(phenyl)methylene)piperidin-1-yl) -2-(4-(1H-1,2,4-triazol-1-yl)-5H-pyrrolo[3,2-d]pyrimidin-7-yl)ethane-1,2-dione]	< 1000
O=C(C(=O)N1CCC(=C(c2ccccc2)c2nnco2)CC1)c1c[nH]c2c(-n3cccn3)ncnc12 [Example 37, 1-(4-((1,3,4-Oxadiazol-2-yl)(phenyl)methylene)piperidin-1-yl) -2-(4-(1H-pyrazol-1-yl)-5H-pyrrolo[3,2-d]pyrimidin-7-yl)ethane-1,2-dione]	< 1000
N#CC(=C1CCN(C(=O)C(=O)c2c[nH]c3c(-n4cccn4)ncnc23)CC1)c1ccccn1 [Example 38, 2-(1-(2-(4-(1H-pyrazol-1-yl)-5H-pyrrolo[3,2-d]pyrimidin-7-yl)-2-oxoacetyl)piperidin-4-ylidene)-2-(pyridin-2-yl)acetonitrile]	< 1000
O=C(C(=O)N1CCN(C(=O)c2ccccc2)CC1)c1c[nH]c2c(-n3ccc(-c4ccccn4)n3)ncnc12 [Example 39, 1-(4-Benzoylpiperazin-1-yl)-2-(4-(3-(pyridin-2-yl) -1H-pyrazol-1-yl)-5H-pyrrolo[3,2-d]pyrimidin-7-yl)ethane-1,2-dione]	< 1000
O=C(C(=O)N1CCN(c2ncnc3ccccc23)CC1)c1c[nH]c2c(-n3cccn3)ncnc12 [Example 40, 1-(4-(1H-Pyrazol-1-yl)-5H-pyrrolo[3,2-d]pyrimidin-7-yl)-2-(4-(quinazolin-4-yl)piperazin-1-yl)ethane-1,2-dione]	< 1000
O=C(C(=O)N1CCN(C(=O)c2ccccc2)CC1)c1c[nH]c2c(N3CCN(C(=O)c4cc[nH]n4)CC3)ncnc12 [Example 41, 1-(4-(4-(1H-Pyrazole-3-carbonyl)piperazin-1-yl)-5H -pyrrolo[3,2-d]pyrimidin-7-yl)-2-(4-benzoylpiperazin-1-yl)ethane-1,2-dione]	< 1000
N#CC(=C1CCN(C(=O)C(=O)c2c[nH]c3c(-n4cccn4)ncnc23)CC1)c1ccccc1 [Example 42, 2-(1-(2-(4-(1H-Pyrazol-1-yl)-5H-pyrrolo[3,2-d]pyrimidin-7-yl)-2-oxoacetyl)piperidin-4-ylidene)-2-phenylacetonitrile]	< 1000
N#CC(=C1CCN(C(=O)C(=O)c2c[nH]c3c(-c4cc[nH]n4)ncnc23)CC1)c1ccccc1 [Example 43, 2-(1-(2-(4-(1H-pyrazol-3-yl)-5H-pyrrolo[3,2-d]pyrimidin-7-yl)-2-oxoacetyl)piperidin-4-ylidene)-2-phenylacetonitrile]	< 1000
